Laboratory results taken from article PMC8387799, “Inhibition Effect of Extract of Psychotria viridiflora Stem on α-Amylase and α-Glucosidase and Its Application in Lowering the Digestibility of Noodles” (Frontiers in Nutrition, 2021).
Converted amounts (≈) assume the structure as drawn.

Tested on: T1, rat intestinal α-glucosidase
T1 construct: gene Mgam; native; supernatant of PBS extract of commercial rat intestinal powder (crude mixture of brush-border glucosidases)
Assay: turbidity ([…] nm) of corn starch hydrolysis, AUC, microplate
Type: biochemical
Settings: corn starch substrate; PBS, 37 °C preincubation 15 min

IC50: 2.27 ± 1.35 µg/mL (≈ 3.52 µM)
SMILES: C[C@H]1O[C@H](O[C@H]2[C@H](O)[C@@H](O)[C@@H](O[C@H]3[C@H](O)[C@@H](O)C(O)O[C@@H]3CO)O[C@@H]2CO)[C@H](O)[C@@H](O)[C@@H]1N[C@H]1C=C(CO)[C@@H](O)[C@H](O)[C@H]1O (stereo partly shown) [acarbose]
